Several values for one entry are separate records, joined by “and”; a condition that tells them apart may be missing. Equal values may be shown once.
Experiments:
[1] = target: HIS-Keap1 full length / Biotin-Nrf2 (16-mer) (Homo sapiens, UniProt Q14145); assay: biochemical
[2] = test system: NQO1 activation in BEAS-2B cells; assay: BEAS-2B cellular MTT assay of NQO1 activation, 0% HSA; type: cell-based
Description: (§1) The growth rate of the BEAS-2B cells changed based on the lot of BEGM SingleQuots in the BEGM media. The cell growth rate was determined for each lot of SingleQuots. Ideally, cells were thawed into media with the new lot of SingleQuots and grown for two passages before testing; however, growing an active culture in the new lot of media for two to three passages before testing was also acceptable. Until the cell growth rate was determined, cells were seeded at different densities (cells/cm^2) in multiple tissue culture flasks in order to avoid the cells becoming more than 70% confluent. Cells should not go above 70% confluent as the cells differentiate when they become confluent. After the cells were grown in the new lot of media as described above, the number of cells per well needed to seed in the collagen plates was determined by seeding different numbers of cells per well and incubating for 48 hours. Cell confluency was checked after 48 hours and a cell number that results in just below to just above confluency was chosen for future plate seeding. Cell confluency in the assay plate was 95-100% confluent after 48 hours.
(§2) Cell media consists of BEBM basal media with the BEGM SingleQuots added. SingleQuots vials were thawed in the tissue culture hood, and GA-1000 (Gentamicin-Amphotericin) was not added.
(§3) If complete media was to be used immediately, BEBM basal media was warmed to room temperature in the hood, but not as high as 37° C. When the media was made for future use, SingleQuots were added to cold BEBM. One at a time, the SingleQuots components (except GA-1000) were added to the BEBM media. After removal of each component from the vial, the vial was rinsed with 0.5-1 mL of BEBM (depending on the volume the vial could hold) and added to the bottle of BEBM. Once all components were added, the label that comes with the SingleQuots kit was put on the bottle of media and the date was recorded. The bottle of media was mixed by gentle shaking. The media was not filtered. This media was stored at 4° C., with any leftover media disposed of one month after the date the SingleQuots were added.
(§4) BEAS-2B Cell Splitting Protocol:
(§5) First, Trypsin was warmed to 37° C. in the water bath. The media was then warmed to room temperature by letting it sit in the tissue culture hood, but not as high as 37° C. The media was aspirated from flask(s) and the flask(s) were washed with PBS. From 1 to 1.5 mL of warm trypsin were added to each flask and incubated at 37° C. until cells came off the flask on their own (~8-10 minutes), with no vigorous tapping on the flask to detach the cells.
(§6) Media was added to each flask to a total volume of 8-10 mL per flask and transferred to 15 mL conical tube(s). The cells were spun down at 120 g for 5 minutes, level 5 brake. The cells can be spun down between 100 and 150 g. Next the media was aspirated and the cell pellet was resuspended in fresh media by pipetting up and down and flicking the tube side to side. Any clumps of cells that remained were allowed to settle to the bottom of the tube before the top suspension was transferred into another tube, leaving about 1 mL of media in the original tube. The 1 mL of media and cell clumps were mixed with a single channel p1000 pipette, and any remaining clumps were removed before adding the cells in suspension to the other tube. The suspension was mixed with a pipette, an aliquot was removed, and the cells were counted. The amount of cells/cm^2 desired was calculated and the required volume of cells was added to tissue culture flasks. For example, use of SingleQuots with ~6000 cells/cm^2 was appropriate for a three day incubation and ~3000 cells/cm^2 for a five day incubation. Optimal cell density differed depending on lot of SingleQuots. The flasks were incubated at 37° C. in 5% CO2.
(§7) Day One: Seeding BEAS-2B Cells in Collagen Plates:
(§8) Plate(s) were either seeded with 0.3% or 0% HSA. While the protocol was similar for both conditions any differences are noted herein below. […]

[3] = test system: NQO1 activation in BEAS-2B cells; assay: BEAS-2B cellular MTT assay of NQO1 activation, 0.3% HSA; type: cell-based
Description: as §1, §2, §3, §4, §5, §6, §7, §8

[4] = Homo sapiens, serum free, read-out: BEAS EC50 (nM) serum free
[5] = serum free, read-out: BEAS EC50 (nM) serum free
[6] = Homo sapiens, Serum Free W, read-out: BEAS EC50 (nM) Serum Free W
[7] = Serum Free W, read-out: BEAS EC50 (nM) Serum Free W
[8] = Homo sapiens, BEAS+ W, read-out: BEAS+ W EC50
[9] = BEAS+ W, read-out: BEAS+ W EC50

Chain of HIS-Keap1 full length / Biotin-Nrf2 (16-mer) (Q14145 whole entry): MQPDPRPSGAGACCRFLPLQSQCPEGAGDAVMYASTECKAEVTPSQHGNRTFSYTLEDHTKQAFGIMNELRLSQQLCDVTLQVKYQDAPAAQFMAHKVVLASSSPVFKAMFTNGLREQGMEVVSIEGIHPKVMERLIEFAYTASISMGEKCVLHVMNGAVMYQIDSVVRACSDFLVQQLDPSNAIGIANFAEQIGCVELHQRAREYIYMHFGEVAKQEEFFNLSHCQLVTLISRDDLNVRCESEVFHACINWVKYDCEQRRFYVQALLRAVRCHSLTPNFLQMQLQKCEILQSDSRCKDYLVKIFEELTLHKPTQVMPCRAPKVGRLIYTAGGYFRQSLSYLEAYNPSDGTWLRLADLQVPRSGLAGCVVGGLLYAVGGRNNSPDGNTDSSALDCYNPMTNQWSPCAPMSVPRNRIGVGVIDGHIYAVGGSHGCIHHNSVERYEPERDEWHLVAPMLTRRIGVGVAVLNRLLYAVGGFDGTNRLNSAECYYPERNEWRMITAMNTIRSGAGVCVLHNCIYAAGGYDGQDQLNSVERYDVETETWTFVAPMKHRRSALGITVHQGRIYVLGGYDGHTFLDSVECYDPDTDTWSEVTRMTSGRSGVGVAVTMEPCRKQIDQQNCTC

| SMILES | IC50 [1] | EC50 [2, 4] | EC50 [2, 5] | EC50 [2, 6] | EC50 [2, 7] | further results |
| --- | --- | --- | --- | --- | --- | --- |
| Cc1c2ccc3c1ncn3CCCCCCc1ccc(cc1)C(=O)N1CCc3ccc(cc3C1)[C@H]2CC(=O)O (single isomer, unassigned) [Compound 385] | 238 nM and 244 nM | 2250 nM | 2850 nM |  |  |  |
| C[C@H](C(=O)O)[C@H]1c2ccc(nc2)OCCCCCc2ccc(cc2)C(=O)N2CCc3ccc1cc3C2 [Compound 60] | 580 nM and 614 nM |  |  | 333 nM | 258 nM and 226 nM |  |
| Cc1cc2ncc1[C@@H]([C@@H](C)C(=O)O)c1ccc3c(c1)CN(CC3)C(=O)c1ccc(cc1)C/C=C/CCO2 [Compound 61] | 720 nM and 651 nM |  |  | 422 nM | 245 nM |  |
| Cc1c2n(C)c3ccc(cc13)CCCCCCn1nnc3c(C)c(cnc31)[C@H](CC(=O)O)c1ccc3c(c1)CN(CC3)C2=O [Compound 68] | 0.3 nM |  |  | 0.4 nM | 0.3 nM |  |
| Cc1cc2cnc1OCC/C=C/Cc1ccc(cc1)C(=O)N1CCc3ccc(cc3C1)[C@@H]2[C@H](C)C(=O)O [Compound 74] | 24.4 nM and 36.4 nM |  |  | 4.7 nM | 7.1 nM |  |
| Cc1cc2cnc1OCCCCCc1ccc(cc1)C(=O)N1CCc3ccc(cc3C1)[C@H]2[C@@H](C)C(=O)O [Compound 76] | > 9900 nM |  |  |  |  | EC50 [3, 8]: > 10000 nM |
| COc1cc2ccc1C(=O)N1CCc3ccc(cc3C1)[C@@H](CC(=O)O)c1cnc3c(nnn3CCCCCC2)c1C [Compound 91] | 1.9 nM |  |  |  |  | EC50 [3, 9]: 155 nM; EC50 [3, 8]: 131 nM |
| COc1cc2ccc1C(=O)N1CCc3ccc(cc3C1)C(CC(=O)O)c1cnc3c(nnn3CCCCCC2)c1C (centres unmarked) [Compound 103] | 1.2 nM |  |  | 22.1 nM | 36.8 nM |  |
| Cc1c2ccc3c1nnn3CCCCCc1ccc(cc1)C(=O)N1CCc3ccc(cc3C1)[C@H]2[C@@H](C)C(=O)O [Compound 130] | 0.6 nM and 0.4 nM |  |  |  |  | EC50 [3, 9]: 0.5 nM and 0.7 nM; EC50 [3, 8]: < 0.5 nM |
| Cc1c2cnc3c1nnn3CCCCCCc1ccc(cc1)C(=O)N1CCc3ccc(cc3C1)[C@@H]2CC(=O)O [Compound 138] | 0.1 nM | 0.5 nM | 0.3 nM |  |  |  |
| Cc1c2ccc3c1nnn3CCCCCCc1ccc(c(F)c1)C(=O)N1CCc3ccc(cc3C1)[C@@H]2[C@H](C)C(=O)O [Compound 142] | 11.3 nM and 11.6 nM |  |  | 34.5 nM | 36.1 nM |  |
| COc1cc2ccc1C(=O)N1CCc3ccc(cc3C1)C(CC(=O)O)c1cnc3c(nnn3CCCCC2)c1C (centres unmarked) [Compound 144] | 0.7 nM and 0.6 nM |  |  |  |  | EC50 [3, 9]: 60.2 nM; EC50 [3, 8]: 32.4 nM |
| Cc1c2cnc3c1nnn3CCCCCCc1ccc(c(F)c1)C(=O)N1CCc3ccc(cc3C1)C2CC(=O)O (centres unmarked) [Compound 146] | 0.1 nM | 0.2 nM |  |  |  |  |
| O=C(O)CC1c2ccc3c(c2)CN(CC3)C(=O)c2ccc(cc2F)CCCCCCn2nnc3c(Cl)c1ccc32 (centres unmarked) [Compound 148] | 0.3 nM and 0.4 nM and 0.8 nM and 0.7 nM |  |  |  |  | EC50 ([3]; BEAS+, read-out: BEAS+ EC50): 0.3 nM |
| COc1cc2ccc1CCCCCn1nnc3c(C)c(ccc31)C(CC(=O)O)c1ccc3c(c1)CN(CC3)C2=O (centres unmarked) [Compound 190] | 4.2 nM and 4.4 nM and 1.1 nM (2×) |  | 1 nM |  |  |  |
| O=C(O)CC1c2ccc(nc2)OCCCCCc2ccc(nc2)C(=O)N2CCc3ccc1cc3C2 (centres unmarked) [Compound 193] | 29.1 nM and 31.5 nM | 1140 nM | 768 nM |  |  |  |
| Cn1c2cc3cc(cnc31)CCCCCCn1nnc3c(Cl)c(ccc31)C(CC(=O)O)c1ccc3c(c1)CN(CC3)C2=O (centres unmarked) [Compound 199] | 3.7 nM and 3.6 nM | 12.7 nM | 11.9 nM |  |  |  |
| Cc1c2ccc3c1nnn3CCCCCc1cnc(nc1)C(=O)N1CCc3ccc(cc3C1)C2CC(=O)O (centres unmarked) [Compound 204] | 3 nM and 2.7 nM | 2880 nM | 3290 nM |  |  |  |

Reference: US12692274B2, “Tetrahydroisoquinoline derivatives for the treatment of red blood disorders and inflammatory diseases” (Sanofi, priority 2020, dated 2026)
